This passage reports IC50 results from patent US7049323B2, “Amidoheterocycles as modulators of the melanocortin-4 receptor” (Bristol-Myers Squibb Company, priority 2003, dated 2006).

Each structure is given as a SMILES string.

This assay deals with T1, cloned human MC4R receptors (Homo sapiens, UniProt P32245).
T1 construct: expressed in transfected cells; host or cells: Hi5 insect cells or HEK-293 cells (baculovirus/human MC4R receptor construct); membranes
T1 sequence (P32245 whole entry): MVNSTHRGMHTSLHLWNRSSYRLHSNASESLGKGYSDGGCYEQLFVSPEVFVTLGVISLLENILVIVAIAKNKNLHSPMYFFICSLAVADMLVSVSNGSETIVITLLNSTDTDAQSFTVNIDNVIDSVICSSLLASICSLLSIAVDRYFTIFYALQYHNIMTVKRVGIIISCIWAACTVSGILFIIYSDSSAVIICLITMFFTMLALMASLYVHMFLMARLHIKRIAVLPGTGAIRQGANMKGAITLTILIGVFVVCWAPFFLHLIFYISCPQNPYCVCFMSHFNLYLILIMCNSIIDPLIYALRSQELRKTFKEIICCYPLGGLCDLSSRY
Nature of the assay: Melanocortin MC4R membrane binding assay ([125I]NDP-α-MSH competition). Conditions: [125I]NDP-α-MSH 0.1 nM, membranes of Hi5 insect cells or HEK-293 cells, 90 minutes at 37° C. The protocol:
Melanocortin MC4R Binding Assay. […] A membrane binding assay was used to identify competitive ligands of [^125I]NDP-α-MSH binding to cloned human MC4R receptors expressed in Hi5 insect cells or HEK-293 cells transfected by a baculovirus/human MC4R receptor construct. The membrane binding buffer was composed of 25 mM HEPES, pH 7.4, 140 mM NaCl, 1.2 mM MgCl2, 2.5 mM CaCl2, and 0.1% BSA Membrane protein (0.5 μg) and [^125I]-NDP-α-MSH (to a final concentration of 0.1 nM) were added. Competing ligands or a buffer blank were added and incubated for 90 minutes at 37° C. After filtration, the cell membranes were evaluated in a Wallac Microbeta Trilux Scintillation and Luminescence Counter (Model 1450). Dose-response cureves were fitted by […] analyses and IC50 values are calculated using ExcelFit.
Compound `CCCCCC(=O)N(C1CCCCC1)C1CN(C(=O)[C@@H](Cc2ccc(Cl)cc2)NC(=O)CCN(C)C)C1` [Example 15] showed an IC50 of 250 to 1000 nM. Compound `NCCC(=O)N[C@H](Cc1ccc(Cl)cc1)C(=O)N1CC[C@@H](N(C(=O)c2ccccc2)C2CCCCC2)C1` [Example 25] showed an IC50 of 250 to 1000 nM. The compound `CC(C)C(=O)N(C1CCCCC1)[C@H]1CCN(C(=O)[C@@H](Cc2ccc(Cl)cc2)NC(=O)CCN(C)C)C1` [Example 60] yielded an IC50 below 250 nM. In turn, `CN(C)CCC(=O)N[C@H](Cc1ccc(Cl)cc1)C(=O)N1CC(N(C2CCCCC2)S(C)(=O)=O)C1` [Example 4] came in with a half-inhibitory concentration (IC50) of 250 to 1000 nM. On to `CC(=O)N(C1CCCCC1)[C@H]1CCN(C(=O)[C@@H](Cc2ccc(Cl)cc2)NC(=O)CCN(C)C)C1` [Example 58], for which the IC50 fell in the range of 1000 to 10000 nM.

Consider `CC(C)N([C@H]1CCN(C(=O)[C@@H](Cc2ccc(Cl)cc2)NC(=O)CCN)C1)S(C)(=O)=O` [Example 53], for which the IC50 is 1000 to 10000 nM.

On to `CC(C)CC(=O)N(CC(C)C)[C@H]1CCN(C(=O)[C@@H](Cc2ccc(Cl)cc2)NC(=O)CCN(C)C)C1` [Example 66], for which the IC50 was 1000 to 10000 nM. For `CC(C)CC(=O)N(CC(C)C)[C@H]1CCN(C(=O)[C@@H](Cc2ccc(Cl)cc2)NC(=O)CCN)C1` [Example 48] the value was 1000 to 10000 nM. In the case of `CS(=O)(=O)N(C1CCCCC1)[C@H]1CCN(C(=O)[C@@H](Cc2ccc(Cl)cc2)NC(=O)[C@@H]2CNCCN2)C1` [Example 40] it was 250 to 1000 nM; in that of `CN(C)CCC(=O)N[C@H](Cc1ccc(Cl)cc1)C(=O)N1CC[C@H](N(C2CCCCC2)S(=O)(=O)c2ccccc2)C1` [Example 67], below 250 nM. In the case of `CCCC(=O)N(C1CCCCCC1)C1CN(C(=O)[C@@H](Cc2ccc(Cl)cc2)NC(=O)CCN(C)C)C1` [Example 3], the IC50 was 250 to 1000 nM. In turn, `CS(=O)(=O)N(C1CCCCC1)[C@H]1CCN(C(=O)[C@@H](Cc2ccc(Cl)cc2)NC(=O)[C@H]2Cc3ccccc3CN2)C1` [Example 35] returned an IC50 below 250 nM. With `NCCC(=O)N[C@H](Cc1ccc(Cl)cc1)C(=O)N1CC[C@H](N(C(=O)CC2CCCC2)C2CCCCC2)C1` [Example 33], the IC50 was below 250 nM. Regarding `O=C(N[C@H](Cc1ccc(Cl)cc1)C(=O)N1CC[C@H](N(C(=O)c2ccno2)C2CCCCC2)C1)[C@H]1Cc2ccccc2CN1` [Example 18], the IC50 is below 250 nM. For `CN(C)CCC(=O)N[C@H](Cc1ccc(Cl)cc1)C(=O)N1CC(N(C2CCCCC2)S(=O)(=O)c2ccccc2)C1` [Example 5] the value was 250 to 1000 nM; for `CC(=O)N(C1CCCCC1)[C@H]1CCN(C(=O)[C@@H](Cc2ccc(Cl)cc2)NC(=O)CCN)C1` [Example 43], 1000 to 10000 nM. In the case of `CC(C)N(C(=O)c1ccco1)[C@H]1CCN(C(=O)[C@@H](Cc2ccc(Cl)cc2)NC(=O)CCN(C)C)C1` [Example 55] it was 1000 to 10000 nM. In the case of `CCCC(=O)N(C1CCCCC1)[C@H]1CCN(C(=O)[C@@H](Cc2ccc(Cl)cc2)NC(=O)CCN)C1` [Example 30] it was below 250 nM. Regarding `CC(C)CN([C@H]1CCN(C(=O)[C@@H](Cc2ccc(Cl)cc2)NC(=O)CCN)C1)S(C)(=O)=O` [Example 49], the IC50 was 1000 to 10000 nM. For `CN(C)CCC(=O)N[C@H](Cc1ccc(Cl)cc1)C(=O)N1CC(N(C(=O)C2CCCC2)C2CCCCC2)C1` [Example 16] the value was below 250 nM; for `CC(C)N([C@H]1CCN(C(=O)[C@@H](Cc2ccc(Cl)cc2)NC(=O)CCN(C)C)C1)S(C)(=O)=O` [Example 62], 1000 to 10000 nM; for `CC(C)CN(C(=O)c1ccco1)[C@H]1CCN(C(=O)[C@@H](Cc2ccc(Cl)cc2)NC(=O)CCN)C1` [Example 47], 1000 to 10000 nM. In the case of `CN(C)CCC(=O)N[C@H](Cc1ccc(Cl)cc1)C(=O)N1CC(N(C(=O)COc2ccccc2)C2CCCCC2)C1` [Example 13] it was 1000 to 10000 nM. In the case of `CCCC(=O)N(C1CCCC1)C1CN(C(=O)[C@@H](Cc2ccc(Cl)cc2)NC(=O)CCN(C)C)C1` [Example 1] it was 250 to 1000 nM; in that of `CC(C)C(=O)N(C1CCCCC1)[C@H]1CCN(C(=O)[C@@H](Cc2ccc(Cl)cc2)NC(=O)[C@@H]2CNCCN2)C1` [Example 46], below 250 nM; in that of `NCCC(=O)N[C@H](Cc1ccc(Cl)cc1)C(=O)N1CC[C@H](N(C(=O)c2ccco2)C2CCCCC2)C1` [Example 24], 1000 to 10000 nM. `CN(C)CCC(=O)N[C@H](Cc1ccc(Cl)cc1)C(=O)N1CC(N(C(=O)CC2CCCC2)C2CCCCC2)C1` [Example 8]: the IC50 was in the range of 250 to 1000 nM. In the case of `CC(C)CC(=O)N(C1CCCC1)[C@H]1CCN(C(=O)[C@@H](Cc2ccc(Cl)cc2)NC(=O)CCN(C)C)C1` [Example 61] it was 1000 to 10000 nM. In the case of `NCCC(=O)N[C@H](Cc1ccc(Cl)cc1)C(=O)N1CC[C@H](N(C(=O)c2ccoc2)C2CCCCC2)C1` [Example 29] it was below 250 nM.

In turn, `CC(C)(C)C(=O)N(C1CCCCC1)[C@H]1CCN(C(=O)[C@@H](Cc2ccc(Cl)cc2)NC(=O)CCN)C1` [Example 32] yielded an IC50 below 250 nM.

For the compound `CN(C)CCC(=O)N[C@H](Cc1ccc(Cl)cc1)C(=O)N1CC(N(C(=O)Cc2ccccc2)C2CCCCC2)C1` [Example 10], the IC50 was in the range of 250 to 1000 nM. In the case of `NCCC(=O)N[C@H](Cc1ccc(Cl)cc1)C(=O)N1CC[C@H](N(C(=O)c2ccno2)C2CCCCC2)C1` [Example 22] it was below 250 nM; in that of `CN(C)CCC(=O)N[C@H](Cc1ccc(Cl)cc1)C(=O)N1CC(N(C(=O)C2CCC2)C2CCCCC2)C1` [Example 7], 250 to 1000 nM.

Turning to `O=C(N[C@H](Cc1ccc(Cl)cc1)C(=O)N1CC[C@@H](N(C(=O)c2ccno2)C2CCCCC2)C1)[C@H]1Cc2ccccc2CN1` [Example 19], the IC50 fell in the range of 250 to 1000 nM. In the case of `Cc1noc(C)c1C(=O)N(C1CCCCC1)[C@H]1CCN(C(=O)[C@@H](Cc2ccc(Cl)cc2)NC(=O)CCN)C1` [Example 34] it was below 250 nM; in that of `CC(C)CC(=O)N(C1CCCC1)[C@H]1CCN(C(=O)[C@@H](Cc2ccc(Cl)cc2)NC(=O)CCN)C1` [Example 51], 250 to 1000 nM; in that of `CN(C)CCC(=O)N[C@H](Cc1ccc(Cl)cc1)C(=O)N1CC(N(C(=O)CC(C)(C)C)C2CCCCC2)C1` [Example 9], 250 to 1000 nM. `CN(C)CCC(=O)N[C@H](Cc1ccc(Cl)cc1)C(=O)N1CC[C@H](N(C(=O)c2ccco2)C2CCCC2)C1` [Example 64] registered an IC50 of 250 to 1000 nM. In the case of `CS(=O)(=O)N(C1CCCC1)[C@H]1CCN(C(=O)[C@@H](Cc2ccc(Cl)cc2)NC(=O)CCN)C1` [Example 50], the IC50 lay within 1000 to 10000 nM.

Compound `CC(C)CC(=O)N(C1CCCCC1)C1CN(C(=O)[C@@H](Cc2ccc(Cl)cc2)NC(=O)CCN(C)C)C1` [Example 14] displayed an IC50 below 250 nM. `CC(C)CC(=O)N(C(C)C)[C@H]1CCN(C(=O)[C@@H](Cc2ccc(Cl)cc2)NC(=O)[C@@H]2CNCCN2)C1` [Example 42]: the IC50 was 250 to 1000 nM. For `CC(C)N(C(=O)c1ccco1)[C@@H]1CCN(C(=O)[C@@H](Cc2ccc(Cl)cc2)NC(=O)CCN)C1` [Example 36] the value was 1000 to 10000 nM.

What is called IC50 is the midpoint of a concentration-inhibition curve. High values mean weaker potency, low ones greater potency.
